Test [1] deals with T1, human renin (Homo sapiens, UniProt P00797).
T1 construct: purchased National Institute for Biological Standards, London
T1 sequence (P00797 67-406): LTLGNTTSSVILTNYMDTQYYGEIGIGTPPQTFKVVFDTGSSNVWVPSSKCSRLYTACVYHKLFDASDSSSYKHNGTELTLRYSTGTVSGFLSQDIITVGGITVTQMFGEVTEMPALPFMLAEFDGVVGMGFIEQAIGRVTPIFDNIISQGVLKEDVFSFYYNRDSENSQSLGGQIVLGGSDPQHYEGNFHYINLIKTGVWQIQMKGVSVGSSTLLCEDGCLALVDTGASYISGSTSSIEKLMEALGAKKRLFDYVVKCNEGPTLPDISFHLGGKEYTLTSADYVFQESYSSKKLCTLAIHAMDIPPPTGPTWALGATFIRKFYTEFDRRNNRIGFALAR
Put plainly: human renin inhibition test, in vitro (angiotensin I by radioimmunoassay). Conditions: pH 7.4, 37° C., two hours. The test is classed as biochemical. As to the method: Compounds of Formula I were evaluated as inhibitors of human renin in an in vitro assay, as follows: This human renin inhibition test has been previously described in detail [Papaioannou et al., Clinical and Experimental Hypertension, A7(9), 1243-1257 (1985)]. Human renin was obtained from the National Institute for Biological Standards, London. An incubation mixture was prepared containing in total volume of 0.25 mL 100 mM Tris-acetate buffer at pH 7.4, 25×10^-6 Goldblatt units of renin, 0.05 mL of plasma from human volunteers taking oral contraceptives,6.0 mM sodium EDTA, 2.4 mM phenylmethyl sulfonyl fluoride, 1.5 mM 8-hydroxyquinoline, 0.4 mg/mL BSA, and 0.024 mg/mL neomycin sulfate. This mixture was incubated for two hours at 37° C. in the presence or absence of renin inhibitors. The produced angiotensin I was determined by radioimmunoassay (New England Nuclear kit). Test compounds to be assayed were solubilized in DMSO and diluted with 100mM Tris-acetate buffer at pH 7.4 containing 0.5 % bovine serum albumin (BSA) to the appropriate concentration. The final concentration of organic solvent in the reaction mixture was less than 1%. Control incubations at 37° C. were used to correct for effects of organic solvent on renin activity.

Test [2] deals with Plasma Renin Activity. Put plainly: Oral Effect of Compounds on Plasma Renin Activity in Sodium Depleted Marmoset. It is filed as in vivo, Common marmosets (Callithrix jacchus). Conditions: @ 1 h, 3 mg/kg dose. As to the method: The oral activity of compounds of Formula I was determined in vivo in Marmoset monkeys in accordance with the following procedure: Common marmosets (Callithrix jacchus, Charles River) were placed on a modified high protein low sodium diet (Purina, St. Louis, Mo.) for 1 to 2 weeks. On the day of the test an animal was anesthetized with isoflurane and cannulated in the femoral artery and vein for blood pressure monitoring, intravenous saralasin infusion and blood sampling. After allowing the animal to recover from surgery for 2 hr, saralasin was infused at 1 microgram/min for 15 minutes to confirm that the animal's blood pressure was dependent on angiotensin II levels. The marmoset was allowed to stabilize for 30 min after the saralasin infusion. The test compound was administered orally and blood pressure was monitored for 2 hr. Blood samples were taken in K-EDTA for plasma renin activity before, 30 min, and 1 hr after compound administration.

The test system of test [3] is hog renin. Conditions: after injection of hog renin into nephrectomized rats; cited from earlier work.
In test [4] the test system is pepsin. The following applies: cited from earlier work.
Test [5] relates to cathepsin D. The following applies: cited from earlier work.
For test [6], the system named is renin. The following applies: cited from earlier work.

pIC50: −log10 of the molar value. Where a SMILES comes first, the peptide text is derived from it. [ ]: non-standard residue; d: D form. The star is where a group is joined. Sta = CC(C)C[C@H](N)[C@@H](O)CC(=O)O; Isovaleryl = CC(C)CC(=O)*

In test [1], `COCCN(C)C(=O)O[C@@H](Cc1ccccc1)C(=O)N[C@@H](Cc1cnc[nH]1)C(=O)N[C@@H](CC1CCCCC1)[C@@H](O)[C@@H](O)CC(C)C` [Example 8, O-[N-methyl-N-(2-methoxyethyl)aminocarbonyl]-3-L-phenyllactyl-L-histidineamide of (2S,3R,4S)-2-amino-1-cyclohexyl-3,4-dihydroxy-6-methylheptane] showed a negative-log IC50 (pIC50) of 8.92. Moreover, in test [2], the “% Reduction of Plasma Renin Activity” value came to 99%.

In the case of `COCCN(C)C(=O)O[C@@H](Cc1ccccc1)C(=O)N[C@@H](CC(C)C)C(=O)N[C@@H](CC1CCCCC1)[C@@H](O)[C@@H](O)CC(C)C` [Example 9, O-(N-methyl-N-(2-methoxyethyl)aminocarbonyl)-3-L-phenyllactyl-L-leucineamide of (2S,3R,4S)-2-amino-1-cyclohexyl-3,4-dihydroxy-6-methylheptane], the pIC50 in test [1] is 8.00. Besides, in test [2], the “% Reduction of Plasma Renin Activity” value was found to be 79%. Take `COCCN(C)C(=O)O[C@@H](Cc1ccccc1)C(=O)NC[C@@H](C)C(=O)N[C@@H](CC1CCCCC1)[C@@H](O)[C@@H](O)CC(C)C` [Example 13, O-(N-methyl-N-(2-methoxyethyl)aminocarbonyl)-3-L-phenyllactyl-α-(R)-methyl-β-alanineamide of (2S,3R,4S)-2-amino-1-cyclohexyl-3,4-dihydroxy-6-methylheptane]: in test [1], the pIC50 is 7.21. Turning to `CC[C@H](CNC(=O)[C@H](CCc1ccccc1)CC(=O)N(C)CCOC)C(=O)N[C@@H](CC1CCCCC1)[C@@H](O)[C@@H](O)CC(C)C` [Example 15, 3-(N-methyl-N-(2-methoxyethyl)aminocarbonyl)-2-(R)-(2-phenylethyl)propionyl-α-(R)-ethyl-β-alanineamide of (2S,3R,4S)-2-amino-1-cyclohexyl-3,4-dihydroxy-6-methylheptane], 0.05 µM produced 17% inhibition in test [1] (@ 5 × 10^-8 M). In test [1], `COCCN(C)C(=O)C[C@@H](CCc1ccccc1)C(=O)NC[C@@H](C)C(=O)N[C@@H](CC1CCCCC1)[C@@H](O)[C@@H](O)CC(C)C` [Example 16, 3-(N-methyl-N-(2-methoxyethyl)aminocarbonyl)-2-(R)-2-phenethylpropionyl-α-(R)-methyl-β-alanineamide of (2S,3R,4S)-2-amino-1-cyclohexyl-3,4-dihydroxy-6-methylheptane] had a negative logarithm of the IC50 (pIC50) of 7.35. Regarding `CC(C)CC(=O)N[C@H](C(=O)N[C@H](C(=O)N[C@@H](CC(C)C)[C@@H](O)CC(=O)N[C@@H](C)C(=O)N[C@@H](CC(C)C)[C@@H](O)CC(=O)O)C(C)C)C(C)C` [pepstatin] (Isovaleryl-VV[Sta]A[Sta]-OH), the “reduction of blood pressure in vivo” value in test [3] is recorded as “found to reduce blood pressure in vivo”. For the same compound, the “inhibition of pepsin (in words)” value in test [4] is “inhibitor of aspartyl proteases such as pepsin”. In test [5], the “inhibition of cathepsin D (in words)” value is given as “inhibitor of aspartyl proteases such as pepsin, cathepsin D”. Also, the “inhibition of renin (in words)” value in test [6] was “inhibitor of aspartyl proteases such as pepsin, cathepsin D and renin”.

Values taken from patent US5229420A, “Ethereal N-terminal aminodiol amino acid derivatives as anti-hypertensive agents” (G. D. Searle & Co., priority 1991, dated 1993).
